Assay results as given in patent US12540150B1, “Fluorogenic probe using a Mislow-Evans rearrangement for real-time imaging of hydrogen peroxide” (University of Pittsburgh—Of the Commonwealth System of …, priority 2020, dated 2026).
“And” between values parts separate entries of the source, which are not always exact repeats. Equal values may be shown once.

Legend:
[1] = Response of probe 1 to H2O2 at various pHs; conditions: for Fluorescence: 23° C., 20 min
Procedure: The probe's response to H2O2 in the pH 4-7.3 range was studied to determine whether this technology would work in acidic and neutral intracellular environments, such as lysosomes (pH 5), Golgi apparatus (pH 6.4-6.8), mitochondria (pH 6.9-8.0), and cytoplasm (pH 7.1-7.6). A solution of 50 mM phosphate pH 7.3 buffer was treated with 1.0 N HCl to adjust the pH to 7.0, 6.5, 5.9, 5.4, 4.5, or 4.1. The concentration of the resulting buffers was adjusted with water to 25 mM phosphate buffer. Solutions of 25 mM phosphate pH 7.3, 7.0, 6.5, 5.9, 5.4, 4.5, or 4.1 buffer ([…]) and 100 μM probe 1 in MeOH were treated with 100 μM, 10 μM or 0 μM H2O2 in water. The solutions were allowed to incubate at 23° C. for 20 min prior to measuring the fluorescence.

[2] = Selectivity of 1: reaction with NO2^−; conditions: for Fluorescence: change over first 15 min
Procedure: It was then sought to determine whether RNS would react with 1 to produce fluorescence. The probe 1 was first exposed to NO2^− at various concentrations. NaNO2 (97.0 mg) was dissolved in ultrapure water (2.00 mL). […] A solution of 100 μM 1 in ethanol (20 μL) was added to 5:95 methanol/50 mM phosphate pH 7 buffer (160 μL). The NaNO2 or H2O2 solutions (20 μL) were added to the solution containing 1 and the fluorescence intensity was measured immediately and again after incubation at 25° C. for 15 min. The fluorescence change over the first 15 min was reported for NO2^− in FIG. 20 and Table 11.

Oc1ccc2c(c1)Oc1cc(O/C=C/C[Se]c3ccccc3)ccc1[C@@]21OCc2ccccc21 [Compound 1, (S,E)-6′-((3-(Phenylselanyl)prop-1-en-1-yl)oxy)-3H-spiro[isobenzofuran-1,9′-xanthen]-3′-ol]
pH dependence of fluorescence signals with H2O2 ([1]; pH 4-7.3 range): higher when the pH was above 5.4 | Fluorescence ([1]; pH 4.10, 0 μM H2O2): 28,470 and 25,037 and 28,661 | Fluorescence ([1]; pH 4.10, 1 μM H2O2): 35,884 and 30,492 and 30,471 | Fluorescence ([1]; pH 4.10, 10 μM H2O2): 51,632 and 54,097 and 52,472 | Fluorescence ([1]; pH 4.50, 0 μM H2O2): 29,770 and 29,064 and 29,069 | Fluorescence ([1]; pH 4.50, 1 μM H2O2): 40,599 and 31,790 and 33,283 | Fluorescence ([1]; pH 4.50, 10 μM H2O2): 55,577 and 54,961 and 56,315 | Fluorescence ([1]; pH 5.40, 0 μM H2O2): 56,192 and 56,334 and 52,671 | Fluorescence ([1]; pH 5.40, 1 μM H2O2): 61,365 and 63,294 and 60,943 | Fluorescence ([1]; pH 5.40, 10 μM H2O2): 106,516 and 107,311 and 103,354 | Fluorescence ([1]; pH 5.90, 0 μM H2O2): 87,499 and 89,708 and 90,424 | Fluorescence ([1]; pH 5.90, 1 μM H2O2): 113,703 and 111,368 and 107,545 | Fluorescence ([1]; pH 5.90, 10 μM H2O2): 167,836 and 187,633 and 154,515 | Fluorescence ([1]; pH 6.50, 0 μM H2O2): 155,151 and 183,747 and 149,421 | Fluorescence ([1]; pH 6.50, 1 μM H2O2): 203,661 and 188,050 and 184,986 | Fluorescence ([1]; pH 6.50, 10 μM H2O2): 332,896 and 341,948 and 335,544 | Fluorescence ([1]; pH 7.00, 0 μM H2O2): 199,101 and 207,136 and 187,676 | Fluorescence ([1]; pH 7.00, 1 μM H2O2): 247,464 and 221,499 and 229,530 | Fluorescence ([1]; pH 7.00, 10 μM H2O2): 389,464 and 369,467 and 390,006 | Fluorescence ([1]; pH 7.30, 0 μM H2O2): 189,898 and 183,424 and 169,054 | Fluorescence ([1]; pH 7.30, 1 μM H2O2): 228,368 and 208,913 and 186,665 | Fluorescence ([1]; pH 7.30, 10 μM H2O2): 373,555 and 388,584 and 401,912 | reaction with NO2^− [2]: did not react | Fluorescence ([2]; 0 μM NO2^− or H2O2, pH 7, 25° C.): 24,359 and 26,870 and 26,226 | Fluorescence ([2]; 0.1 μM H2O2): 58,172 and 52,104 and 52,249 | Fluorescence ([2]; 0.1 μM NO2^−): 31,075 and 36,429 and 27,504 | Fluorescence ([2]; 1 μM H2O2): 266,770 and 242,313 and 222,834 | Fluorescence ([2]; 1 μM NO2^−): 26,768 and 31,470 and 33,004
